In PMC12040169 (PLOS Biology, 2025):

Assay: in vitro
Conditions: human, hela cells, % viability

Row | Compound | viability at 28.5 h, 10 µM [%] | viability at 28.5 h, 10 µM (bulk resorufin, single well) [%]
1 | COc1ccc([N+](=O)[O-])cc1NC(=O)CSc1nnnn1C [CBK268950] | 93 | –
2 | COc1ccc(/C(C#N)=C/c2ccc(-c3ccc(C(=O)O)cc3)o2)cc1OC [CBK268953] | 108 | –
3 | CC(c1ccccc1)n1c(S)nnc1-c1cc(C(C)(C)C)n[nH]1 (stereo not shown) [CBK268954] | 92.2 | –
4 | CCOC(=O)C1CCN(S(=O)(=O)c2ccc(OC)c(C)c2C)CC1 [CBK268955] | 96.1 | –
5 | CSc1ncc(Cl)c(C(=O)Nc2sc3c(c2C(=O)NCC2CCCO2)CCC3)n1 (stereo not shown) [CBK268959] | 95 | –
6 | O=C(c1ccc([N+](=O)[O-])cc1)n1nc(-c2cccnc2)nc1NCc1ccc(F)cc1 [CBK268962] | 96.6 | –
7 | O=C(Nc1cccc(-c2cn3cccnc3n2)c1)c1cccc([N+](=O)[O-])c1 [CBK268963] | 93 | –
8 | NC(=O)CSc1nnc(-c2cc3ccccc3o2)n1Cc1ccccc1 [CBK268964] | 90.1 | –
9 | COc1ccc(CNc2nc(-c3cccnc3)nn2C(=O)c2ccc([N+](=O)[O-])cc2)cc1 [CBK268966] | 98.9 | –
10 | O=C(O)CCNS(=O)(=O)c1ccc(I)cc1 [CBK268968] | 111 | –
11 | CN1CCN(C(=O)CSc2nnc(COc3ccccc3)o2)CC1 [CBK268970] | 85.4 | –
12 | CSc1ncc(Cl)c(C(=O)Nc2sc3c(c2C(=O)NCc2ccco2)CCCC3)n1 [CBK268971] | 96.6 | –
13 | NS(=O)(=O)c1ccc(NC(=O)c2cc([N+](=O)[O-])ccc2N2CCOCC2)cc1 [CBK268972] | 101 | –
14 | Cc1cc(C)c(C)c(OCC(=O)N(Cc2nc(-c3ccccc3)no2)C2CCCCC2)c1 [CBK268974] | 104 | –
15 | Nc1nn(S(=O)(=O)c2cccc3nsnc23)cc1-c1ccc(Br)cc1 [CBK268975] | 107 | –
16 | CSc1ncc(Cl)c(C(=O)Nc2sc3c(c2C(=O)NCc2ccccc2)CCCC3)n1 [CBK268976] | 99.5 | –
17 | N#C/C(=C/c1cn(CC(=O)O)c2ccccc12)c1ccc(C(=O)O)cc1 [CBK268977] | 111 | –
18 | NC(=O)CC1C(=O)N(c2ccc(F)cc2)C(=S)N1NC(=O)CCc1ccccc1 (stereo not shown) [CBK268978A] | 108 | –
19 | Cc1occc1-c1nnc(SCC(=O)Nc2cccc3nsnc23)o1 [CBK268979] | 89.5 | –
20 | Cc1ccc(NC(=O)C2CC=CCC2C(=O)O)cc1NC(=O)c1ccc(Cl)cc1 (stereo not shown) [CBK268980] | 92.6 | –
21 | Cc1nn(CCCC(=O)Nc2sc3c(c2C#N)CCC(C(C)(C)C)C3)c(C)c1[N+](=O)[O-] (stereo not shown) [CBK268982] | 103 | –

Row | Compound | viability at 28.5 h, 10 µM [%] | viability at 28.5 h, 10 µM (bulk resorufin, single well) [%]
22 | Cc1cc(-c2nnc(SCC(=O)N3CCOCC3)o2)no1 [CBK268984] | 103 | –
23 | O=C(O)CCc1ccc(-c2ccc(F)cc2)n1CC1CCCO1 (stereo not shown) [CBK268988] | 86.5 | –
24 | COc1ccc(N2CCN(CC(=O)N3CCC(C(N)=O)CC3)CC2)cc1 [CBK268993] | 96.6 | –
25 | CS(=O)(=O)N(CC(=O)Nc1ccc(S(=O)(=O)N2CCCC2)cc1)c1ccc2c(c1)OCO2 [CBK268995] | 97.7 | –
26 | N#Cc1ccccc1CSc1nc(N2CCOCC2)nc(N2CCOCC2)n1 [CBK268998] | 92.3 | –
27 | CN1CCN(C(=O)C2CCCN(S(=O)(=O)c3ccc(Br)cc3)C2)CC1 (stereo not shown) [CBK269006] | 107 | –
28 | O=C(CSc1nnc(-c2cc(Br)ccc2O)[nH]1)NCCc1ccccc1 [CBK269007] | 85.8 | –
29 | COc1cc(C2c3c(-c4cc(C)c(C)cc4O)n[nH]c3C(=O)N2CCO)cc(Br)c1O (stereo not shown) [CBK269009] | 112 | –
30 | CCn1c2ccccc2c2cc(NC(=O)CSc3nnc(-c4ccoc4C)o3)ccc21 [CBK269010] | 105 | –
31 | Cc1cc(C)n2nc(C(=O)NCc3ccccn3)cc2n1 [CBK269015] | 89.3 | –
32 | CC(C)(C)c1ccc(O)c(NC(=S)NC(=O)c2cccc(OCc3ccccc3)c2)c1 [CBK269018] | 97.3 | –
33 | COc1cc(C2NC(=O)N(CCc3ccccc3)C(c3ccccc3)=C2C(C)=O)ccc1O (stereo not shown) [CBK269024] | 108 | –
34 | CCOC(=O)c1cnc(SCC(=O)N2c3ccccc3SC3C=CC=CC32)nc1N (stereo not shown) [CBK269029] | 99.6 | –
35 | Cc1cccc(OCc2nnc(SCc3nc4ccccc4c(=O)[nH]3)o2)c1 [CBK269030] | 98.7 | –
36 | O=S(=O)(N1CCCCC1)N1CCN(CC(O)COc2ccc3cc(Br)ccc3c2)CC1 (stereo not shown) [CBK269032] | 106 | –
37 | NC(=O)CC1C(=O)N(c2ccc(F)cc2)C(=O)N1NC(=O)CCc1ccccc1 (stereo not shown) [CBK269033] | 104 | –
38 | O=C(Nc1ccncc1)c1ccc2nc[nH]c2c1 [CBK269034] | 93.2 | –
39 | Cc1cc(N2C(=O)CC(N3CCC(C(=O)N4CCOCC4)CC3)C2=O)no1 (stereo not shown) [CBK269035] | 92.6 | –
40 | CN(C)c1nc(N(C)C)nc(N(C#N)S(=O)(=O)c2ccccc2Cl)n1 [CBK269036] | 88.3 | –
41 | COc1cc(C(=S)N2CCN(C)CC2)ccc1OCC(N)=O [CBK269037] | 84.7 | –
42 | O=C(NC(=S)Nc1ccc(-c2ccc(CO)o2)cc1)c1ccc2c(c1)OCCO2 [CBK269038] | 82.9 | –

Row | Compound | viability at 28.5 h, 10 µM [%] | viability at 28.5 h, 10 µM (bulk resorufin, single well) [%]
43 | Cc1ccc(N(CC(=O)NCC2CCCO2)S(=O)(=O)c2ccc(Cl)cc2)cc1 (stereo not shown) [CBK269039] | 104 | –
44 | Cc1occc1-c1nnc(SCC(=O)Nc2c(C)n(C)n(-c3ccccc3)c2=O)o1 [CBK269042] | 90.9 | –
45 | CC(=O)c1ccc(NC(=O)CSc2nc(O)cc(-c3ccccc3)n2)cc1 [CBK269048] | 96 | –
46 | O=C(O)c1ccccc1-c1ccc(-c2cc(C(=O)O)c3cc(F)ccc3n2)o1 [CBK269051] | 98.8 | –
47 | O=C(COc1ccc(S(=O)(=O)N2CCCCC2)cc1)NCc1ccncc1 [CBK269053] | 92.5 | –
48 | CCCSc1ncc(Cl)c(C(=O)Nc2ccc(S(=O)(=O)N3CC(C)OC(C)C3)cc2)n1 (stereo not shown) [CBK269055] | 100 | –
49 | COc1ccccc1-c1noc(CSc2nnc(-c3ccccc3)n2-c2ccc(C)c(C)c2)n1 [CBK269058] | 105 | –
50 | Cc1cc(C)cc(N(C(C)C(=O)N2CCN(Cc3ccc4c(c3)OCO4)CC2)S(C)(=O)=O)c1 (stereo not shown) [CBK269060] | 90.3 | –
51 | O=C(CSc1nnc(Cc2ccccc2)n1-c1ccc(Cl)cc1)Nc1cc(Cl)ccc1O [CBK269061] | 99.9 | –
52 | COc1cccc(/C=C\c2onc(C)c2[N+](=O)[O-])c1OCC(=O)O [CBK269063] | 104 | –
53 | CSc1ncc(Cl)c(C(=O)Nc2nc(-c3ccc(S(=O)(=O)N4CCOCC4)cc3)cs2)n1 [CBK269064] | 102 | –
54 | Cc1ccc(OC(C)C(=O)NNC(=O)c2ccc([N+](=O)[O-])cc2)cc1 (stereo not shown) [CBK269065] | 104 | –
55 | CCN1CCN(c2c(Cl)cccc2NC(=O)c2ccc(N3CCOCC3)c([N+](=O)[O-])c2)CC1 [CBK269066] | 98.8 | –
56 | O=S(=O)(N1CCOCC1)N1CCCN(S(=O)(=O)N2CCOCC2)CC1 [CBK269068] | 103 | –
57 | Cc1ccc(-n2c(SCC(=O)N3CCCCC3)nnc2-c2cc(Br)ccc2O)c(C)c1 [CBK269070] | 94.7 | –
58 | O=C(c1ccncc1)c1ccc(N2CCN(C3CC(=O)N(Cc4cccs4)C3=O)CC2)cc1 (stereo not shown) [CBK269074] | 94.6 | –
59 | Cc1cccc(N2C(=O)NC(=O)C(CCc3ccccn3)(CCc3ccccn3)C2=O)c1C [CBK269075] | – | 91.7
60 | CCOc1ccccc1-c1noc(CSc2nnc(-c3ccncc3)n2-c2cccc(C)c2)n1 [CBK269076] | 104 | –
61 | O=C(CSc1nc(Nc2ccccc2)nc(N2CCOCC2)n1)N1CCN(c2ccccc2)CC1 [CBK269078] | 98.5 | –
62 | CN1CCN(c2ccc(NC(=O)c3ccc(OCc4ccccc4)cc3)cc2Cl)CC1 [CBK269080] | 96.2 | –
63 | CN(C)S(=O)(=O)N(CC(=O)NCc1ccccc1Cl)c1ccccc1 [CBK269081] | 103 | –

Row | Compound | viability at 28.5 h, 10 µM [%] | viability at 28.5 h, 10 µM (bulk resorufin, single well) [%]
64 | Cc1nc(NC(=N)Nc2ccccc2C(F)(F)F)[nH]c(=O)c1Cc1ccccc1 [CBK269083] | 99.8 | –
65 | Cc1ccc(OCCn2c(=N)n(CCN3CCOCC3)c3ccccc32)cc1 [CBK269085B] | 97.9 | –
66 | CNC(=O)c1c(NC(=O)c2nc(SCc3ccccc3)ncc2Cl)sc2c1CCCC2 [CBK269087] | 93.9 | –
67 | Clc1ccccc1-c1nnc(Cn2c3ccc(Br)cc3c3nc4ccccc4nc32)o1 [CBK269091] | 88.5 | –
68 | Cn1c(=O)c2[nH]c(-c3ccc(OCC(=O)NCCc4ccccc4)cc3)nc2n(C)c1=O [CBK269092] | 97.9 | –
69 | O=C(CCn1cnc2ccccc21)NNC(=O)Nc1cccc(C(F)(F)F)c1 [CBK269093] | 93.9 | –
70 | O=C(c1ccccc1[N+](=O)[O-])n1nc(-c2cccnc2)nc1NCc1cccs1 [CBK269094] | 99.5 | –
71 | O=C(Cc1ccccc1)N1CCN(S(=O)(=O)N2CCCCC2)CC1 [CBK269097] | 85.2 | –
72 | COc1ccc(S(=O)(=O)N(C)c2ccc(C(=O)NCc3ccccn3)cc2)cc1 [CBK269099] | 88.1 | –
73 | CC(=O)c1c(C)nn(C(C)CC(=O)O)c1C (stereo not shown) [CBK269101] | 103 | –
74 | C=CCn1c(SCC(=O)Nc2cc(Cl)ccc2O)nnc1-c1ccccc1O [CBK269102] | 100 | –
75 | CN(C)CCCn1c(=O)[nH]c2sc3c(c2c1=N)CC(C)(C)OC3 [CBK269103] | 107 | –
76 | CSc1nsc(SCC(=O)c2ccc(Oc3ccccc3)cc2)n1 [CBK269104] | 96.8 | –
77 | Cc1cc2nc(/C(C#N)=C/c3cc(C)n(-c4ccc(C(=O)O)cc4)c3C)[nH]c2cc1C [CBK269105] | 92.1 | –
78 | Cc1cc2ncc(-c3[nH]ncc3[N+](=O)[O-])cn2n1 [CBK269106] | 98.1 | –
79 | O=C(CSc1nc(N2CCOCC2)nc(N2CCOCC2)n1)c1ccc([N+](=O)[O-])cc1 [CBK269107] | 86.9 | –
80 | Cc1c(Br)c([N+](=O)[O-])nn1C(C)C(=O)NCc1ccco1 (stereo not shown) [CBK269108] | 92.2 | –
81 | CCOc1ccc2nc(NC(=O)c3nc(SCc4ccccc4)ncc3Cl)sc2c1 [CBK269109] | 97.1 | –
82 | Cc1ccc(C)c(NS(=O)(=O)c2cc(C(=O)NCc3ccccn3)ccc2C)c1 [CBK269110] | 98.3 | –
